Assay results as given in US20260325519A1, “METHOD AND PHARMACEUTICAL COMPOSITION FOR USE IN THE TREATMENT OF FOCAL CORTICAL DYSPLASIA” (priority 2023, published 2026).

Columns and labels:
[1] = test system: neocortical acute slices from rats with FCDII; assay: Spontaneous recurrent epileptiform discharges (LFP) in acute neocortical slices from adult FCD rats; assay type: cell-based, rat (Wistar); conditions: 5 μM gabazine
Experimental: Our study takes advantage of a rat model of FCD developed in our laboratory (Pelorosso et al 2019) by in utero electroporation of a gain of function mutation of mTOR (MTOR c.6644C>T p.S2215F), that has been found in different FCD patients (Baldassari et al 2019). Rats were housed in cages with ad libitum food/water, controlled temperature (21-23 °C) and 12:12 h light-dark cycle (light period from 8 A.M. to 8 P.M.).
Plasmid electroporations were performed with either wild type (WT) or mutant mTOR expression vectors (pCAG-MTOR WT-IRES-GFP or pCAG-MTOR p.S2215F, respectively, 3.0 μg/μL each), or with non-recombinant vector (pCAG-IRES-GFP; 0.5 μg/μL). All constructs were generated by Genscript (Piscataway, NJ) as described before (Pelorosso et al 2019) and were checked by Sanger sequencing.
Timed pregnant Wistar rats (Janvier Labs, Le Genest-Saint-Isle, France) received buprenorphine at 0.03 mg/kg and were anesthetized with sevoflurane (4%) 30 min later. […]
Prior to recordings, rat or human acute slices were transferred in oxygenated normal cerebrospinal fluid (ACSF) at room temperature (>1 hour). […] Spontaneous recurrent epileptiform discharges were recorded as local field potentials as previously described (Peret et al., 2014). […]

[2] = test system: acute cortical slices from a patient with FCD; assay: Recurrent epileptiform discharges (LFP) in human acute slice from surgically resected FCD; assay type: cell-based; conditions: 5 μM UBP 310, 50 μM 4-AP and 5 μM gabazine
Experimental: Cortical slices from patients with drug-resistant epilepsy Acute and cultured slices at 350 μm thickness were prepared from surgical cortical resections from patient diagnosed with drug-resistant epilepsy (AP-HM, Hôpital de La Timone, Marseille, France; CHU Pellegrin, Bordeaux, France) as previously described (Le Duigou et al., 2018). At DIV 1, a subset of cultured slices were transduced with AAV9 with antigrik2 miRNA applied directly to slices (4E+10 per slice).
Prior to recordings, rat or human acute slices were transferred in oxygenated normal cerebrospinal fluid (ACSF) at room temperature (>1 hour). The ACSF contained (in mM, Sigma-Aldrich): 126 NaCl, 3.5 KCl, 1.2NaH2PO4, 26 NaHCO3, 1.3 MgCl2, 2.0 CaCl2 , and 10 glucose (pH 7.4). For electrophysiological recordings, cortical slices were individually transferred to a recording chamber maintained at 30-32 °C and continuously perfused (2-3 ml/min) with oxygenated (95% O2 and 5% CO2) ACSF containing either 5 μM gabazine, or 5 μM gabazine and 50 μM 4-AP in rats and human tissues, respectively. Spontaneous recurrent epileptiform discharges were recorded as local field potentials as previously described (Peret et al., 2014).
All statistical analyses were performed using Prism 6 (Graphpad). Normality of the data distributions was systematically tested using a Shapiro-Wilk test. […]

[3] = test system: acute cortical slices from a patient with FCD; assay: Field EPSP (fEPSP) evoked by electrical stimulation in human acute slice from surgically resected FCD; assay type: cell-based; conditions: 5 μM UBP 310
[4] = acute cortical slices from a patient with FCD
[5] = human acute slice from resected FCD, in words

In the case of `Cc1cn(C[C@H](N)C(=O)O)c(=O)n(Cc2ccsc2C(=O)O)c1=O` [UBP 310], the “reduction in the number of epileptiform discharges” value ([1]; 5 μM UBP 310, bath application, acute neocortical slice from adult FCD rat, n=7 slices from 4 FCD rats, Wilcoxon p=0.0156) is reported as “around 46%”, the “reduction in the frequency of spontaneous recurrent epileptiform discharges” value ([1]; 5 μM UBP 310, neocortical acute slices from rats with FCDII) is reported as “around 46%” and the “reduction of the frequency of spontaneous recurrent epileptiform discharges” value [2, 4] is reported as “around 70%”. The “reduction of the number of epileptiform discharges” value [2, 5] was “strong reduction”, the “reduction of the amplitude of evoked field EPSP (fEPSP)” value [3, 4] was “approximately 50%” and the “fEPSP evoked by electrical stimulation” value [3, 5] was “strongly reduced”.
